Measured values reported in PubChem BioAssay (NCI).
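Dose response: 5 concentrations. Exposure: 48 h. Format: 96-well plates. Endpoint: linear interpolation; highest concentration if not reached. The concentration for 50% growth inhibition is given as GI50. TGI is the concentration that stops growth completely.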

What was measured:
Assay in all cases: inhibition of tumour cell growth, NCI panel, 48 h
[1] = tested on: EKVX NSCLC
[2] = tested on: HCC-2998 colon
[3] = tested on: HOP-62 NSCLC
[4] = tested on: HOP-92 NSCLC
[5] = tested on: MOLT-4 leukemia
[6] = tested on: SF-268 CNS
[7] = tested on: SK-MEL-2 melanoma
[8] = tested on: COLO 205 colon
[9] = tested on: NCI-H522 lung
[10] = tested on: RXF 393 renal

Row | SMILES | TGI [1] | TGI [2] | TGI [3] | TGI [4] | TGI [5] | TGI [6] | TGI [7] | GI50 [8] | TGI [8] | GI50 [1] | GI50 [3] | GI50 [4] | GI50 [5] | GI50 [9] | TGI [9] | GI50 [10] | TGI [10] | GI50 [6] | GI50 [7] | GI50 [2]
1 | CCc1cccc(C)c1NC(=O)C(=O)CC(=O)c1ccc(Cl)s1 | > 100 µM | > 100 µM | > 100 µM | > 100 µM | > 100 µM | > 100 µM | > 100 µM |  |  |  |  |  |  |  |  |  |  |  |  | 
2 | Cc1csc2[n+]1-c1ccccc1N(C(=O)Nc1ccccc1)C(C)C2 (stereo unspecified) | > 100 µM |  | > 100 µM | > 100 µM | > 100 µM | > 100 µM | > 100 µM | > 100 µM | > 100 µM | > 100 µM | 41.9 µM | 41.7 µM | 88.5 µM | 61.9 µM | > 100 µM | 50.8 µM | > 100 µM | > 100 µM | > 100 µM | 
3 | COCc1c(-c2cc3cc(C)cc(OC)c3s2)c2c(N)ncnn2c1CN1CCNC(=O)C1 | 29.8 µM | > 100 µM | 15.9 µM | 5.92 µM | 48.5 µM | > 100 µM | 8.61 µM | 5.13 µM | 24.4 µM | 2.67 µM | 2.6 µM | 1.29 µM | 3.22 µM | 3.78 µM | 25.3 µM |  |  | 4.3 µM | 2.83 µM | 8.37 µM
4 | O=[N+]([O-])C=C(c1ccc(Cl)cc1)c1ccc(Cl)cc1 | 32.5 µM | 34.4 µM | 37.5 µM |  | 56.9 µM |  | 57 µM |  | 12.2 µM |  |  |  |  |  | 28.8 µM |  | 33.5 µM |  |  | 
5 | CCOP(=O)(OCC)C1CCCOC1=O (stereo unspecified) | > 100 µM | > 100 µM | > 100 µM |  | > 100 µM | > 100 µM | > 100 µM |  | > 100 µM |  |  |  |  |  |  |  | > 100 µM |  |  | 
6 | COC(=O)C1=C(O)[C@H](C(=O)OC)C2(O)C(C(=O)OC)[C@H](c3ccc(OC(=O)C(C)c4ccc(CC(C)C)cc4)cc3)C[C@@H]1[C@@H]2C(=O)OC (stereo partly specified) | 6.7 µM | 15.8 µM | > 50 µM | > 50 µM |  | > 50 µM | > 50 µM | 12.3 µM | 41.3 µM | 0.97 µM | 31.7 µM | 32.8 µM |  | 14.3 µM | > 50 µM |  |  | > 50 µM | 24.9 µM | 7.95 µM
7 | CC(C)(C)c1ccc(Oc2ccc(N)cn2)cc1 | > 100 µM | > 100 µM | > 100 µM |  | > 100 µM | > 100 µM | > 100 µM | 50.7 µM | > 100 µM | 28.2 µM | > 100 µM |  | 3.96 µM | 9.46 µM | > 100 µM | 49.6 µM | > 100 µM | 5.77 µM | > 100 µM | > 100 µM
8 | Cc1ccc(/C=N/Nc2nc(Nc3ccccc3)nc(-n3nc(C)cc3C)n2)cc1 | 31.5 µM | 6.6 µM | 29.2 µM | 10.9 µM | 8.53 µM | > 100 µM | 27 µM | 3.6 µM | 13.4 µM | 3 µM | 5.27 µM | 2.28 µM | 2.4 µM | 2.67 µM | 6.48 µM |  |  | 4.42 µM | 5.72 µM | 2.71 µM
